Data set [1] deals with securin "knock out" cells D8 (Securin−/−). Nature of the data set: Growth inhibition of securin knock out cells D8 (SRB, 5 days). In kind it is cell-based. The settings on record: for IC50: 120 h, securin knock out D8 cells, 5 days, SRB; for Selectivity Ratio D8: IC50 HCT116 / IC50 securin KO D8. The protocol:
(§1) IC50 analysis was performed for selected fused heterobicyclic 2-aryl or 2-heteroarylthiazolyl compounds that were tested on HCT116 cells and Securin “knock out” cell lines.
(§2) Cell Culture—HCT116 and securin “knock out” cells. HCT116 and securin “knock out” cells (D8 and F3) were grown in RPMI+5% fetal bovine serum and gentamycin. They were maintained in a humidified 37° C. incubator with 5% CO2. Since the securin “knock out” cells have active chromosomal instability, cells were used at a low passage number of 2-13 passages. At or before passage 13 a new vial of cells was thawed and used for the screen. Cell seeding—HCT116 cells and securin “knock out” cells were trypsinized and suspenended in RPMI+5% FBS at a density of 27,000 cells/mL. HCT116 and securin “knock out” cells were seeded separately in wells of a 96-well plate (Falcon Cat # 35-3872) at a cell density of 4000 cells per well. Cells were seeded in 150 μL of RPMI media containing 5% FBS and gentamycin. Cell seeding was performed under aseptic conditions. Cells were allowed to attach and grow overnight in a humidified 37° C. incubator.
(§3) Compound Dilution and Dispensation. A series of stock solutions, 10 mg/ml of 2-aryl- or 2-heteroarylthiazolyl compounds to be tested, were brought to room temperature. The compounds were diluted 1:50 in RPMI+5% FBS (Highest concentration 200 μg/mL). The compounds were then serially diluted 1:3 across a deep-well titration plate resulting in final concentrations in the plate of 200, 66.7, 22.2, 7.4, 2.4, 0.8 0.27, 0.091, 0.03, 0.01, and 0.0034 μg/mL with one well left without a compound. 50 μL of this dilution series was added to the 150 μL of cells to result in a final concentration of compound in with the cells of 50, 16.6, 5.5, 1.8, 0.6, 0.2, 0.068, 0.023, 0.0076, 0.0025, and 0.00084 μg/mL. The dilution and addition of compounds to the plates is performed using a Multimek 96 Robot (Beckman Coulter).
(§4) Incubation and analysis. After dosing, the cells in the 96 well plates were returned to the humidified 37° C. incubator. The compounds remained on the cells for 5 days. After 5 days, the cells were fixed to the plates with the addition of 50 μL of 50% (vol/vol) Trichloro Acetic Acid ([…]). The cells were fixed at 4° C. for 1 hour. The plates were washed 5 times in distilled water and allowed to dry. The cells were stained with 0.4% sulforhodamine B (Sigma) in 1% acetic acid. The cells were stained for 15 minutes at room temperature. The plates were then washed 3 times in 1% acetic acid. The plates were dried and the dye was solubilized in 10 mM Tris at pH 8.0. The plates were read on the Absorbence 560 setting on a Victor^2 V Model 1420 Multilabel HTS counter (Perkin Elmer).
(§5) Analysis of Results—IC50 data. Absorbence data was read off of the Victor and was converted to a percentage of the control (untreated) values. IC50 values were graphed and the point at which a 50% inhibition of the control level was determined. […] If the model was not able to determine an IC50, the IC50 was assigned to the lowest concentration that gives a 50% or greater decrease in absorbence compared to control levels. If the calculated IC50 value for a cell line exceeds the top concentration for the assay (typically 50 μg/mL), the assay was scored as >50.
(§6) Selectivity Ratio. The Selectivity Ratio is the ratio of IC50s between the parent cell line and the knock out cell line and is always a positive number and is typically an integer.

Data set [2] relates to HCT116 cells (Securin+/+, securin parental cell line HCT116 FB). Nature of the data set: Growth inhibition of securin parental cells (SRB, 5 days). It counts as cell-based. The conditions noted are these: Homo sapiens, HCT-116, 120 h. The protocol:
as §1, §2, §3, §4, §5

Data set [3] has as its system securin "knock out" cells F3 (Securin−/−). Nature of the data set: Growth inhibition of securin knock out cells F3 (SRB, 5 days). The conditions noted are these: for IC50: 120 h, securin knock out F3 cells, 5 days, SRB; for Selectivity Ratio F3: IC50 HCT116 / IC50 securin KO F3. It counts as cell-based. As for the experimental part: as §1, §2, §3, §4, §5, §6
Data set [4] concerns xenografts of a human breast carcinoma cell line (MDA-MB-361). Nature of the data set: In-vivo activity in tumor xenografts. The protocol: Selected fused heterobicyclic 2-aryl- or 2-heteroarylthiazolyl compounds of formula I were tested for their activity in a securin parental cell line (HCT116 FB) and a securin knockout (KO) cell line. […] The in-vivo activity of selected fused heterobicyclic 2-arylarylthiazolyl compounds of formula I was studied in cells growing as xenografts in athymic (nude) mice. The effect of Examples 5-7 and 10 was studied in xenografts of a human breast carcinoma cell line (MDA-MB-361).
In-vivo Activity in Tumor Xenografts. The effectiveness of Examples 5-7 versus Vincristine at controlling tumor growth was studied and the results are summarized in Table 2 and FIG. 1. The 2-arylthiazolyl compounds were formulated 0.5% Methocel™ (methylcellulose) and 0.4% Tween 80™ (polysorbate-80 and oleic acid) and administered daily orally (PO), by gavage or intraperiotenially (IP) by syringe. Tumor mass [(length×width^2)/2] was determined every 7 days. Inhibition of tumor growth was calculated relative to conventional (vehicle treated) controls.

[5] abbreviates: 20 mg/kg/dose PO, days 1 through 20.
Setting [6] is: 50 mg/kg/dose PO, days 1 through 20.
Setting [7] is: 0.8 mg/kg/dose IP, days 1, 5 and 9.

Here are results for 13 compounds from patent US20090270447A1, “2-Aryl-and 2-Heteroarylthiazolyl Compounds, Methods for Their Preparation and Use Thereof” (Wyeth, priority 2008, published 2009).

For orientation: IC50 means the concentration that gives 50% inhibition. In the case of `OCc1cc(N2CCCC2)ccc1-c1nc2c(s1)[C@H](O)CNC2` [Example 11, (7R)-2-(2-hydroxymethyl-4-pyrrolidin-1-yl-phenyl)-4,5,6,7-tetrahydro[1,3]thiazolo[4,5-c]pyridin-7-ol], in data set [1], 0.0406 µM corresponded to half-maximal inhibition (IC50) and the “Selectivity Ratio D8” value is recorded as 2251. In addition, in data set [2], the IC50 is 91.4 µM. In data set [3], the concentration for half-maximal inhibition (IC50) came to 0.0483 µM and the “Selectivity Ratio F3” value is given as 1892.
Turning to `OC1CCCc2nc(-c3ccc(N4CCCC4)cc3)sc21` (stereo not shown) [2-(4-pyrrolidiny-1-ylphenyl)-4,5,6,7-tetrahydro-1,3-benzothiazol-7-ol, reference compound], in data set [4] (setting [5]), the “S/T = # of Survivors/# of Treated on Day +21 post tumor staging” value is 10/10, the “% T/C Day 7” value turned out to be 101%, the “Relative Tumor Growth Day 7” value came out at 1.67 and the “% T/C Day 14” value came out at 109%. In addition, in data set [4] (setting [5]), the “Relative Tumor Growth Day 14” value came to 5.48, the “% T/C Day 21” value came to 132% and the “Relative Tumor Growth Day 21” value was determined as 12.07. Also, in data set [4] (setting [6]), the “S/T = # of Survivors/# of Treated on Day +21 post tumor staging” value is reported as 10/10, the “% T/C Day 7” value is given as 95%, the “Relative Tumor Growth Day 7” value stood at 1.57 and the “% T/C Day 14” value amounted to 78%. For the same compound, in data set [4] (setting [6]), the “Relative Tumor Growth Day 14” value came to 3.93, the “% T/C Day 21” value came to 95% and the “Relative Tumor Growth Day 21” value is given as 8.73.
As to `CN(C)c1ccc(-c2nc3c(s2)[C@H](O)CNC3)cc1` [Example 3, (R)-2-(4-dimethylamino-phenyl)-4,5,6,7-tetrahydro[1,3]thiazolo[4,5-c]pyridin-7-ol], in data set [1], the IC50 is 0.395 µM and the “Selectivity Ratio D8” value was found to be 168. Besides, the concentration for half-maximal inhibition (IC50) in data set [2] was 66.4 µM. In data set [3], the IC50 stood at 0.555 µM and the “Selectivity Ratio F3” value was 120.
The like results for `CN(C)c1ccc(-c2nc3c(s2)C(O)COC3)cc1Br` (stereo not shown) [Example 16, 2-[3-bromo-4-(dimethylamino)phenyl]-6,7-dihydro-4H-pyrano[3,4-d][1,3]thiazol-7-ol] were, in that order, 14.3 µM, 3, 41.6 µM, 15.2 µM and 3.
On to `OCc1cc(N2CCCC2)ccc1-c1nc2c(s1)C(O)CNC2` (racemic) [Example 10, (7R,7S)-2-(2-hydroxymethyl-4-pyrrolidin-1-yl-phenyl)-4,5,6,7-tetrahydro[1,3]thiazolo[4,5-c]pyridin-7-ol], for which, in data set [1], the “selectivity ratio (IC50 HCT116 FB/IC50 securin KO), in words” value is reported as “high selectivity ratio”; the IC50 was 0.0808 µM; the “Selectivity Ratio D8” value worked out at 998. In addition, in data set [2], the IC50 worked out at 80.6 µM. For the same compound, in data set [3], the IC50 turned out to be 0.0944 µM and the “Selectivity Ratio F3” value came out at 854.
`Nc1cc(N2CCCC2)ccc1-c1nc2c(s1)C(O)CNC2` (stereo not shown) [Example 14, 2-(2-amino-4-pyrrolidin-1-yl-phenyl)-4,5,6,7-tetrahydro[1,3]thiazolo[4,5-c]pyridin-7-ol]: the IC50 was determined as 0.0379 µM in data set [1], 48.1 µM in data set [2] and 0.0486 µM in data set [3]. For the same compound, the “Selectivity Ratio D8” value in data set [1] came to 1269. Besides, the “Selectivity Ratio F3” value in data set [3] came to 990.
Take `CN(C)c1ccc(-c2nc3c(s2)C(O)CNC3)c(CO)c1` (stereo not shown) [Example 8, 2-(2-hydroxymethyl-4-dimethylamino-phenyl)-4,5,6,7-tetrahydro[1,3]thiazolo[4,5-c]pyridine-7-ol]: in data set [1], the IC50 came out at 0.0989 µM and the “Selectivity Ratio D8” value is given as 1011. Besides, the IC50 in data set [2] is 100 µM. For the same compound, in data set [3], the IC50 came to 0.107 µM and the “Selectivity Ratio F3” value amounted to 936.
In the same order, the values of `CN(C)c1ccc(-c2nc3c(s2)C(O)CNC3)cc1` (racemic) [Example 2, 2-(4-dimethylamino-phenyl)-4,5,6,7-tetrahydro[1,3]thiazolo[4,5-c]pyridin-7-ol] are 0.931 µM, 93, 86.4 µM, 1.28 µM and 68.
For the compound `CC[C@]1(O)C[C@H]2CN(CCc3c([nH]c4ccccc34)[C@@](C(=O)OC)(c3cc4c(cc3OC)N(C=O)[C@H]3[C@@](O)(C(=O)OC)[C@H](OC(C)=O)[C@]5(CC)C=CCN6CC[C@]43[C@@H]65)C2)C1` [Vincristine, reference compound], in data set [4] (setting [7]), the “% T/C Day 7” value is on record as 80%, the “Relative Tumor Growth Day 7” value is 1.33, the “% T/C Day 14” value came to 43% and the “Relative Tumor Growth Day 14” value was 2.14. Moreover, in data set [4] (setting [7]), the “% T/C Day 21” value was 58% and the “Relative Tumor Growth Day 21” value stood at 5.29.
For `CN(C)c1ccc(-c2nc3c(s2)C(O)COC3)cc1` (stereo not shown) [Example 17, 2-[4-(dimethylamino)phenyl]-6,7-dihydro-4H-pyrano[3,4-d][1,3]thiazol-7-ol], in data set [1], the IC50 amounted to 1.12 µM and the “Selectivity Ratio D8” value was determined as 46. Further, the IC50 in data set [2] is 51.1 µM. Also, in data set [3], the IC50 came out at 1.53 µM and the “Selectivity Ratio F3” value came out at 33.
The like results for `CN1Cc2nc(-c3ccc(N(C)C)cc3)sc2C(O)C1` (stereo not shown) [Example 1, 2-(4-dimethylamino-phenyl)-5-methyl-4,5,6,7-tetrahydro[1,3]thiazolo[4,5-c]pyridine-7-ol] were, in that order, 2.48 µM, 10, 23.9 µM, 3.07 µM and 8.
The like results for `O=[N+]([O-])c1cc(N2CCCC2)ccc1-c1nc2c(s1)C(O)CNC2` (stereo not shown) [Example 15, 2-(2-nitro-4-pyrrolidin-1-yl-phenyl)-4,5,6,7-tetrahydro[1,3]thiazolo[4,5-c]pyridin-7-ol] were, in that order, 2.95 µM, 10, 28.4 µM, 4.6 µM and 6.
`CN(C)c1ccc(-c2nc3c(s2)[C@@H](O)CNC3)cc1` [Example 4, (S)-2-(4-dimethylamino-phenyl)-4,5,6,7-tetrahydro[1,3]thiazolo[4,5-c]pyridin-7-ol]: the results for the IC50 in data set [1], in data set [2] and in data set [3] were 2.19 µM, 169 µM and 3.39 µM, respectively. Besides, the “Selectivity Ratio D8” value in data set [1] came to 77. The “Selectivity Ratio F3” value in data set [3] turned out to be 50.
